In US20230101768A1, “METHOD TO TREAT MANGANESE TOXICITY AND MANGANESE-INDUCED PA[…] HUMANS” (priority 2021, published 2023):

What was measured:
VEGF = assay type: cell-based; settings: primary human hepatocytes, 250 μM manganese for 4 h
Method: (§1) (A) and (B): qRT-PCR assays in cells treated with or without 10 μM LW6 for 1 h followed by 0 or 250 μM manganese for 4 h (A) or with or without 20 μM roxadustat or 80 μM vadadustat for 16 h (B). […] For (B), expression in the absence of drug treatment was normalized to 1. N=3. Mean±SE. *P<0.05 by t-test (A) or one-way ANOVA and Dunnett's post hoc test for the comparison between no drug and other conditions (B).
(§2) Cell culture. HepG2 cells were grown in Eagle's modified essential medium (MEM; Corning) with 10% fetal bovine serum (Atlanta Biologicals), 100 IU/ml penicillin (Corning), and 100 μg/ml streptomycin (Corning). 293T cells were maintained in Dulbecco's modified essential medium/F12 (Thermo) supplemented with 10% fetal bovine serum, penicillin (100 IU/ml), and streptomycin (100 μg/ml). Human primary hepatocytes were purchased from XenoTech (catalog #HPCH10+) and cultured according to protocols provided by the supplier.
(§3) manganese and drug treatments in cell culture. Cells were treated with indicated levels of manganese as manganeseCl2.4H2O (Fisher). Vehicle for manganese treatment was water. Prolyl hydroxylase inhibitors roxadustat (Caymen), vadadustat, and molidustat (both APE-Bio); the HIFα inhibitor LW6 (Selleckchem); the proteasomal inhibitor MG132 (Sigma); and the transcription inhibitor actinomycin D (Sigma) were dissolved in DMSO. […] Vehicle treatment for all drugs was DMSO.
(§4) Quantitative RT-PCR assays. RNA extraction from HepG2 cells and mouse tissue, reverse transcription to cDNA, and qRT-PCR analyses were performed as described by us previously (47, 50). For analyses of mouse brain samples, a part of the midbrain, including the basal ganglia, was used. Transcript levels were quantified using the ΔΔCT method with 18S (in mice) or TBP (in HepG2 cells) as the internal control, also as described by us previously (47, 50).

SLC30A10 = assay type: cell-based; settings: primary human hepatocytes, 250 μM manganese for 4 h
Method: as §1, §2, §3, §4

HIF1α [1] = assay type: cell-based, human; settings: HepG2 cells, 250 μM manganese; evident at 4 hours, baseline by 24 h
Method: as §3
(§5) Immunoblots. HepG2 cells were cultured in 35 mm dishes, treated with or without manganese, MG132 and/or prolyl hydroxylase inhibitors, and scrapped using 200 μl of RIPA buffer (50 mM Tris-HCl, pH7.4; 150 mM NaCl; 1Mm EDTA; 1% Triton; 0.25% sodium deoxycholate; protease inhibitors cocktail (Thermo A32953)). Whole-cell lysates were prepared by adding loading buffer (50 mM Tris-HCl, pH 7.4; 2% sodium dodecyl sulfate; 10% glycerol, 0.1 M dithiothreitol; 0.01% (weight/volume) bromophenol blue) and boiling the samples for 5 min. Equal volumes of samples were loaded per lane. Further processing was as described by us previously (47). Images were quantified using ImageQuant TL software (GE).
(§6) Antibodies and chemicals. The inventors used the following commercial primary antibodies in this study: rabbit polyclonal anti-HIF1α (Abcam, Ab2185), rabbit polyclonal anti-HIF2α (Novus, NB100-122), rabbit monoclonal anti-HIF1α proline 564 (Cell signaling, 3434S), and mouse monoclonal anti-tubulin (Sigma, T5168). […] Sources of chemicals not provided elsewhere were Thermo Fisher Scientific or Sigma-Aldrich.

[2] = system: prolyl hydroxylated HIF1α; assay type: cell-based, human; settings: HepG2 cells, 10 μM MG132 for 1 h then 250 μM manganese for 4 h
Method: as §3, §5, §6

HIF2α [3] = assay type: cell-based, human; settings: HepG2 cells, 250 μM manganese; evident at 4 hours, baseline by 24 h
Method: as §3, §5, §6

SLC30A10 promoter = assay type: cell-based, human
Excerpt: A luciferase reporter plasmid containing the proximal promoter of human SLC30A10 has been previously described and was a gift of Dr. Ruth Valentine (100). The promoter fragment corresponding to bases −679 to +211 relative to the start of transcription was sub-cloned into the Xho1 and SpeI sites of pRRLSIN.cPPTLuciferase.WPRE vector (Addgene, #69251), which is a luciferase vector for lentivirus infections. Deletion mutants were generated using the loop-out modification of the QuikChange protocol.
Lentiviral infections. Stable cells were generated by lentivirus infection essentially as described by us previously (49, 98). Briefly, lentivirus was produced in HEK293T cells by co-transfecting transfer plasmids described above with plasmids coding for a third generation packing system that is routinely used (pRSV-Rev, pRRE, and pCMV-VSVG) (49, 98). Viral supernatants were collected 40-48 h post-transfection. HepG2 cells for infection were plated in a 60 mm dish 24 h before infection so that cells reached a confluence of 30% on the day of infection. Collected viral supernatants were filtered through a 0.45-μm polyvinylidene difluoride filter, and cells were incubated with a 1:2 dilution of viral supernatant containing 5 μg/mL Polybrene (Santa Cruz). […]

HIF1α [4] = assay type: cell-based, human
Excerpt: (§7) qRT-PCR analyses in HepG2 cells stably infected with scramble shRNAs or shRNAs targeting HIF1α, HIF2α, HIF1β/ARNT or HIF1α+HIF2α. Expression in respective scramble shRNA control cells was normalized to 1. Scramble shRNA sequence 1 was used for the HIF1α shRNA assay (single knockdown). Scramble shRNA sequence 2 was used for the other experiments, including HIF1α+HIF2α double knockdown. N=3-4. Except HIF1β/ARNT shRNAs, p<0.05 by t-test in comparison with respective scramble shRNA. […] N.S.—not significant.
(§8) ShRNA sequences targeting HIF1α, HIF2α, or HIF1β/ARNT (Table 3) were obtained from the MISSION® TRC shRNA library (Sigma) or were previously described (103). Scramble shRNA sequence 1 was from the MISSION® TRC shRNA library while scramble shRNA sequence 2 (Table 3) has been previously reported (104). These sequences were sub-cloned into the lentivirus transfer plasmid pLKO.1 vector (Addgene #8453).
(§9) Lentiviral infections. Stable cells were generated by lentivirus infection essentially as described by us previously (49, 98). Briefly, lentivirus was produced in HEK293T cells by co-transfecting transfer plasmids described above with plasmids coding for a third generation packing system that is routinely used (pRSV-Rev, pRRE, and pCMV-VSVG) (49, 98). Viral supernatants were collected 40-48 h post-transfection. […]
(§10) Quantitative RT-PCR assays.

HIF2α [5] = assay type: cell-based, human
Excerpt: as §7, §8, §9, §10

## O.O.O.O.[Cl][Mn][Cl] [manganese, manganeseCl2.4H2O]
VEGF
  VEGF expression after manganese: increased
SLC30A10
  SLC30A10 expression after manganese: increased
HIF1α [1]
  HIF1α protein levels after manganese: increased
[2]
  Signals for prolyl hydroxylated HIF1α in manganese-treated condition: substantially lower
HIF2α [3]
  HIF2α protein levels after manganese: increased
SLC30A10 promoter
  Luciferase activity after manganese: increased
HIF1α [4]
  HIF1α mRNA levels after manganese: not elevated
HIF2α [5]
  HIF2α mRNA levels after manganese: not elevated
